Legend:
Type in all cases: in vivo
[1] = test system: bermudagrass (Cynodon dactylon); assay: Test C postemergence
Method in brief: (§1)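 Visual injury scores of 0–100, with 100 meaning complete control, were given relative to controls after 12–14 days in the greenhouse. Treatments used a surfactant-containing non-phytotoxic solvent formulation, sprayed on seeded pots preemergence or on 1–4-leaf plants of 2–18 cm postemergence.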

[2] = test system: velvetleaf (Abutilon theophrasti); assay: Test C postemergence
Method in brief: as §1

[3] = test system: lambsquarters (Chenopodium album); assay: Test C postemergence
Method in brief: as §1

[4] = test system: chickweed (Stellaria media); assay: Test C postemergence
Method in brief: as §1

soybean (Glycine max) = assay: Test C postemergence
Method in brief: as §1

[5] = test system: johnsongrass (Sorghum halepense); assay: Test C postemergence
Method in brief: as §1

corn (Zea mays) = assay: Test C postemergence
Method in brief: as §1

[6] = test system: common ragweed (Ambrosia elatior); assay: Test C postemergence
Method in brief: as §1

[7] = test system: goosegrass (Eleusine indica); assay: Test C postemergence
Method in brief: as §1

[8] = test system: giant foxtail (Setaria faberii); assay: Test C postemergence
Method in brief: as §1

[9] = test system: crabgrass (Digitaria sanguinalis); assay: Test C postemergence
Method in brief: as §1

[10] = test system: yellow nutsedge (Cyperus esculentus); assay: Test C postemergence
Method in brief: as §1

kochia (Kochia scoparia) = assay: Test C postemergence
Method in brief: as §1

[11] = test system: pigweed (Amaranthus retroflexus); assay: Test C postemergence
Method in brief: as §1

[12] = test system: cocklebur (Xanthium strumarium); assay: Test C postemergence
Method in brief: as §1

[13] = test system: Surinam grass (Brachiaria decumbens); assay: Test C postemergence
Method in brief: as §1

Sunflower = assay: Test C preemergence; conditions: Rate 62 g/ha, scale 0 to 100
[14] = test system: common ragweed (Ambrosia elatior); assay: Test C preemergence; conditions: for Plant response rating (0 to 100), Ragweed, Common: Rate 500 g/ha, visual evaluation after 12 to 14 days
Method in brief: as §1

[15] = Rate 125 g/ha, scale 0 to 100, 0 no effect, 100 complete control
[16] = Rate 250 g/ha, scale 0 to 100 (0 no effect, 100 complete control)
[17] = Rate 500 g/ha, scale 0 to 100 (0 no effect, 100 complete control)
[18] = preemergence, Rate 62 g/ha, scale 0 to 100
[19] = preemergence, Rate 250 g/ha, scale 0 to 100, 0 no effect, 100 complete control

CCCC(C)c1ccn(C2OCN(c3cccc(OC(F)(F)F)c3)C2=O)n1 (stereo not shown) [Compound 91]
20: Plant response rating, Bermudagrass ([1]; Rate 62 g/ha, scale 0 to 100) | Plant response rating, Bermudagrass [1, 15] | Plant response rating, Johnsongrass ([5]; Rate 62 g/ha, scale 0 to 100) | Plant response rating, Johnsongrass [5, 15] | Plant response rating, Goosegrass ([7]; Rate 62 g/ha, scale 0 to 100) | Plant response rating, Goosegrass [7, 15] | Plant response rating, Foxtail, Giant ([8]; Rate 62 g/ha, scale 0 to 100) | Plant response rating, Foxtail, Giant [8, 15] | Plant response rating, Crabgrass ([9]; Rate 62 g/ha, scale 0 to 100) | Plant response rating, Crabgrass [9, 15] | Plant response rating, Nutsedge [10, 17] | Plant response rating, Cocklebur [12, 17] | Plant response rating, Surinam grass ([13]; Rate 62 g/ha, scale 0 to 100) | Plant response rating, Surinam grass [13, 15]
90: Plant response rating, Chickweed [4, 17] | Plant response rating, Kochia (kochia (Kochia scoparia); [16]) | Plant response rating, Kochia (kochia (Kochia scoparia); [17]) | Plant response rating, Pigweed [11, 16]
0: Plant response rating, Velvetleaf ([2]; Rate 62 g/ha, scale 0 to 100) | Plant response rating, Velvetleaf [2, 15] | Plant response rating, Velvetleaf [2, 16] | Plant response rating, Velvetleaf [2, 17] | Plant response rating, Soybean (soybean (Glycine max); Rate 62 g/ha, scale 0 to 100) | Plant response rating, Soybean (soybean (Glycine max); [15]) | Plant response rating, Soybean (soybean (Glycine max); [16]) | Plant response rating, Soybean (soybean (Glycine max); [17]) | Plant response rating, Corn (corn (Zea mays); Rate 62 g/ha, scale 0 to 100) | Plant response rating, Corn (corn (Zea mays); [15]) | Plant response rating, Corn (corn (Zea mays); [16]) | Plant response rating, Corn (corn (Zea mays); [17]) | Plant response rating, Ragweed, Common ([6]; Rate 62 g/ha, scale 0 to 100) | Plant response rating, Ragweed, Common [6, 15] | Plant response rating, Ragweed, Common [6, 16] | Plant response rating, Nutsedge ([10]; Rate 62 g/ha, scale 0 to 100) | Plant response rating, Nutsedge [10, 15] | Plant response rating, Nutsedge [10, 16] | Plant response rating, Cocklebur ([12]; Rate 62 g/ha, scale 0 to 100) | Plant response rating, Cocklebur [12, 15] | Plant response rating, Cocklebur [12, 16] | Plant response rating, Sunflower (Sunflower) | Plant response rating, Ragweed, Common [14, 15] | Plant response rating, Ragweed, Common [14, 18] | Plant response rating (0 to 100), Ragweed, Common ([14]; preemergence) | Plant response rating, Ragweed, Common [14, 19]
60: Plant response rating, Bermudagrass [1, 17] | Plant response rating, Crabgrass [9, 17]
100: Plant response rating, Lambsquarters ([3]; Rate 62 g/ha, scale 0 to 100) | Plant response rating, Lambsquarters [3, 15] | Plant response rating, Lambsquarters [3, 16] | Plant response rating, Lambsquarters [3, 17] | Plant response rating, Pigweed [11, 17]
70: Plant response rating, Chickweed ([4]; Rate 62 g/ha, scale 0 to 100) | Plant response rating, Johnsongrass [5, 17] | Plant response rating, Kochia (kochia (Kochia scoparia); Rate 62 g/ha, scale 0 to 100) | Plant response rating, Kochia (kochia (Kochia scoparia); [15]) | Plant response rating, Pigweed ([11]; Rate 62 g/ha, scale 0 to 100) | Plant response rating, Pigweed [11, 15]
40: Plant response rating, Bermudagrass [1, 16] | Plant response rating, Ragweed, Common [6, 17] | Plant response rating, Goosegrass [7, 17] | Plant response rating, Foxtail, Giant [8, 16] | Plant response rating, Foxtail, Giant [8, 17]
80: Plant response rating, Chickweed [4, 15] | Plant response rating, Chickweed [4, 16]
30: Plant response rating, Johnsongrass [5, 16] | Plant response rating, Goosegrass [7, 16] | Plant response rating, Crabgrass [9, 16] | Plant response rating, Surinam grass [13, 16] | Plant response rating, Surinam grass [13, 17]

COc1cc(N2CCC(n3ccc(C(C)C)n3)C2=O)ccc1C (stereo not shown) [Compound 85]
50: Plant response rating, Corn (corn (Zea mays); Rate 62 g/ha, scale 0 to 100) | Plant response rating, Corn (corn (Zea mays); [15]) | Plant response rating, Corn (corn (Zea mays); [16])
10: Plant response rating, Goosegrass ([7]; Rate 62 g/ha, scale 0 to 100) | Plant response rating, Goosegrass [7, 15] | Plant response rating, Nutsedge ([10]; Rate 62 g/ha, scale 0 to 100)
0: Plant response rating, Bermudagrass ([1]; Rate 62 g/ha, scale 0 to 100) | Plant response rating, Bermudagrass [1, 15] | Plant response rating, Ragweed, Common ([6]; Rate 62 g/ha, scale 0 to 100) | Plant response rating, Surinam grass ([13]; Rate 62 g/ha, scale 0 to 100)
90: Plant response rating, Bermudagrass [1, 17] | Plant response rating, Lambsquarters [3, 15] | Plant response rating, Ragweed, Common [6, 17] | Plant response rating, Nutsedge [10, 17] | Plant response rating, Kochia (kochia (Kochia scoparia); [17]) | Plant response rating, Pigweed [11, 16] | Plant response rating, Cocklebur [12, 16] | Plant response rating, Cocklebur [12, 17] | Plant response rating, Ragweed, Common [14, 18]
20: Plant response rating, Chickweed ([4]; Rate 62 g/ha, scale 0 to 100) | Plant response rating, Ragweed, Common [6, 15] | Plant response rating, Ragweed, Common [6, 16] | Plant response rating, Goosegrass [7, 16] | Plant response rating, Foxtail, Giant ([8]; Rate 62 g/ha, scale 0 to 100) | Plant response rating, Foxtail, Giant [8, 15] | Plant response rating, Surinam grass [13, 15] | Plant response rating, Surinam grass [13, 16]
60: Plant response rating, Soybean (soybean (Glycine max); Rate 62 g/ha, scale 0 to 100) | Plant response rating, Soybean (soybean (Glycine max); [15]) | Plant response rating, Corn (corn (Zea mays); [17]) | Plant response rating, Goosegrass [7, 17] | Plant response rating, Kochia (kochia (Kochia scoparia); [15]) | Plant response rating, Pigweed ([11]; Rate 62 g/ha, scale 0 to 100) | Plant response rating, Surinam grass [13, 17]
100: Plant response rating, Lambsquarters [3, 16] | Plant response rating, Lambsquarters [3, 17] | Plant response rating, Chickweed [4, 16] | Plant response rating, Chickweed [4, 17] | Plant response rating, Pigweed [11, 17] | Plant response rating, Ragweed, Common [14, 15] | Plant response rating (0 to 100), Ragweed, Common ([14]; preemergence) | Plant response rating, Ragweed, Common [14, 19]
40: Plant response rating, Velvetleaf ([2]; Rate 62 g/ha, scale 0 to 100) | Plant response rating, Velvetleaf [2, 15] | Plant response rating, Velvetleaf [2, 16] | Plant response rating, Velvetleaf [2, 17] | Plant response rating, Johnsongrass [5, 15] | Plant response rating, Johnsongrass [5, 16] | Plant response rating, Foxtail, Giant [8, 16] | Plant response rating, Crabgrass [9, 16] | Plant response rating, Kochia (kochia (Kochia scoparia); Rate 62 g/ha, scale 0 to 100) | Plant response rating, Cocklebur ([12]; Rate 62 g/ha, scale 0 to 100) | Plant response rating, Sunflower (Sunflower)
80: Plant response rating, Bermudagrass [1, 16] | Plant response rating, Kochia (kochia (Kochia scoparia); [16])
30: Plant response rating, Johnsongrass ([5]; Rate 62 g/ha, scale 0 to 100) | Plant response rating, Crabgrass ([9]; Rate 62 g/ha, scale 0 to 100) | Plant response rating, Crabgrass [9, 15]
70: Plant response rating, Lambsquarters ([3]; Rate 62 g/ha, scale 0 to 100) | Plant response rating, Chickweed [4, 15] | Plant response rating, Soybean (soybean (Glycine max); [16]) | Plant response rating, Soybean (soybean (Glycine max); [17]) | Plant response rating, Johnsongrass [5, 17] | Plant response rating, Foxtail, Giant [8, 17] | Plant response rating, Crabgrass [9, 17] | Plant response rating, Pigweed [11, 15] | Plant response rating, Cocklebur [12, 15]
